Earlier results in paper PMC10583817 (RSC Medicinal Chemistry, 2023).

System: WIN site of WDR5
Conditions: cited from earlier work

For `Cc1nc(F)ccc1-c1cc(Cn2ccn(C)c2=N)cc(C(=O)NCc2ccc(Cl)c(Cl)c2)c1` [WIN-IN-4], the binding activity is listed as “sub-nanomole”.
